Measurements taken from paper PMC3289669, “Capacity for Absorption of Water-Soluble Secondary Metabolites Greater in Birds than in Rodents” (PLoS ONE, 2012).
Where “and” joins values, the source holds several entries; their conditions need not be identical. Identical values can stand only once. Like-named read-outs stand apart in the source and are kept apart here.

Assays:
[1] = Recovery of injected probes in urine, both rodent species pooled; assay type: in vivo; conditions: Acomys cahirinus and Acomys russatus (pooled), intraperitoneal, data for both rodent species pooled, post-injection, read-out: Recovery of injected probe in urine, 95% C.I.
Protocol: (§1) As a measure of passive, paracellular absorption, we used standard methods from pharmacokinetics to measure the whole-organism fractional absorption of water-soluble compounds. As described in more detail, below, metabolically inert probe molecules were injected and also administered orally with a gavage needle to intact animals in separate experiments, and blood and/or urine samples were serially collected and analyzed for the probe molecules by liquid scintillation. Fractional absorption (f) was calculated as [post oral administration AUC]/[ post injection AUC] where AUC = dose-corrected area under the curve of plasma or urine probe amount vs. time. […] In mammals, the probes can be recovered in urine, and estimates of oral absorption take account of possible differential recovery by incorporating data on probes when injected. As shown in Results, recoveries of carbohydrate probes were uniformly high, which is in agreement with measures by others in rats and humans. In birds, plasma is sampled rather than urine, because urine is mixed in the avian cloaca with undigested residue from the intestine. […] In Discussion we elaborate on comparisons between these two procedures and reasons to choose them.
Also, the rodents were transferred to metabolic cages with wire bottoms and a tray beneath from which to collect clean urine samples. At the beginning of a trial, animals were orally dosed at 1.0% body mass with an isosmotic solution containing L-[^14C]arabinose (∼0.02 µCi/g animal) and either [^3H]3OMD-glucose (∼0.1 µCi/g animal) or [^3H]lactulose (∼0.5 µCi/g animal). […]
(§2) After administration of radiolabeled probes, birds and rodents were returned to their cages, where birds had ad libitum access to fruit and the rodents had ad libitum access to sucrose solution (10% w/w). […] Scintillation cocktail (Quicksafe A, Zinsser, UK) was added and samples were counted for disintegrations per minute (dpm) by liquid scintillation (Packard Tri-Carb 1600 TR scintillation counter, Packard INC., Meriden CT, USA), with corrections for quench and appearance of ^14C counts in the ^3H channel. […]

[2] = Fractional absorption of orally administered probes by rodents (urine recovery); assay type: in vivo, Acomys cahirinus and Acomys russatus; conditions: for Fractional absorption (f): oral, both rodent species pooled, corrected for post-injection recovery, mean ± SEM
Protocol: as §1
(§3) Also, the rodents were transferred to metabolic cages with wire bottoms and a tray beneath from which to collect clean urine samples. At the beginning of a trial, animals were orally dosed at 1.0% body mass with an isosmotic solution containing L-[^14C]arabinose (∼0.02 µCi/g animal) and either [^3H]3OMD-glucose (∼0.1 µCi/g animal) or [^3H]lactulose (∼0.5 µCi/g animal). Oral dose solutions also contained NaCl (∼90 mM, ∼180 mOsm) and D-glucose (∼90 mM, ∼90 mOsm). NaCl was included in the solution to balance osmolality. Inclusion of Na^+ also provides an essential ion for Na^+-coupled D-glucose absorption, although it is not strictly necessary in this kind of whole-animal study because animals would still absorb nearly all glucose even if the diet is low in Na^+ because additional Na^+ is secreted into the intestinal lumen together with bicarbonate and diffuses from blood. In a separate experimental trial, each animal was injected (0.6% body mass) with isosmotic NaCl solution containing L-[^14C]arabinose (∼0.02 µCi/g animal) and either [^3H]3OMD-glucose (∼0.1 µCi/g animal) or [^3H]lactulose (∼0.1 µCi/g animal). The injection site was the pectoralis muscle in birds and the peritoneal cavity in rodents. Syringes were weighed before and after dosing animals to determine actual dose administered.
(§4) After administration of radiolabeled probes, birds and rodents were returned to their cages, where birds had ad libitum access to fruit and the rodents had ad libitum access to sucrose solution (10% w/w). The purpose was to provide rodents water and some calories and also make them urinate more. Serial blood samples (∼25 µL) were drawn from the brachial vein of birds as described previously at t = 0 (background), 10, 20, 30, 45, 60, 80 or 90, 120, 150 min post-injection or post-oral administration. Plasma was separated using a standard hematocrit centrifuge, placed in scintillation vials and weighed. […] Scintillation cocktail (Quicksafe A, Zinsser, UK) was added and samples were counted for disintegrations per minute (dpm) by liquid scintillation (Packard Tri-Carb 1600 TR scintillation counter, Packard INC., Meriden CT, USA), with corrections for quench and appearance of ^14C counts in the ^3H channel. […]

[3] = Fractional absorption of orally administered probes by Tristram's grackle (plasma AUC); assay type: in vivo, Onychognathus tristramii; conditions: oral; for Tmax: Onychognathus tristramii, plasma, read-out: Time of peak plasma level post oral administration; for Fractional absorption (f): AUCoral/AUCinj, mean ± SEM
Protocol: as §1, §3, §4

[4] = Fractional absorption of orally administered probes by yellow-vented bulbul (plasma AUC); assay type: in vivo, Pycnonotus xanthopygos; conditions: oral; for Tmax: Pycnonotus xanthopygos, plasma, read-out: Time of peak plasma level post oral administration (converted); for Fractional absorption (f): AUCoral/AUCinj, mean ± SEM
Protocol: as §1, §3, §4

[5] = Fractional absorption of orally administered probes, both bird species pooled; assay type: in vivo, Onychognathus tristramii and Pycnonotus xanthopygos; conditions: for Fractional absorption (f): oral, both bird species pooled, mean ± SEM
Protocol: as §1
as §3, with “In a separate experimental trial, each animal was injected (0.6% body mass) with isosmotic NaCl solution containing L-[^14C]arabinose (∼0.02 µCi/g animal) and either [^3H]3OMD-glucose (∼0.1 µCi/g animal) or [^3H]lactulose (∼0.1 µCi/g animal). The injection site was the pectoralis muscle in birds and the peritoneal cavity in rodents. Syringes were weighed before and after dosing animals to determine actual dose administered.” left out
as §2

[6] = Mono-exponential fit of plasma probe concentrations after injection, Tristram's grackle; assay type: in vivo, Onychognathus tristramii; conditions: dose-corrected plasma concentration, mean ± SEM
Protocol: as §3, with “In a separate experimental trial, each animal was injected (0.6% body mass) with isosmotic NaCl solution containing L-[^14C]arabinose (∼0.02 µCi/g animal) and either [^3H]3OMD-glucose (∼0.1 µCi/g animal) or [^3H]lactulose (∼0.1 µCi/g animal). The injection site was the pectoralis muscle in birds and the peritoneal cavity in rodents. Syringes were weighed before and after dosing animals to determine actual dose administered.” left out
as §2

[7] = Mono-exponential fit of plasma probe concentrations after injection, yellow-vented bulbul; assay type: in vivo, Pycnonotus xanthopygos; conditions: dose-corrected plasma concentration, mean ± SEM
Protocol: as §3, with “In a separate experimental trial, each animal was injected (0.6% body mass) with isosmotic NaCl solution containing L-[^14C]arabinose (∼0.02 µCi/g animal) and either [^3H]3OMD-glucose (∼0.1 µCi/g animal) or [^3H]lactulose (∼0.1 µCi/g animal). The injection site was the pectoralis muscle in birds and the peritoneal cavity in rodents. Syringes were weighed before and after dosing animals to determine actual dose administered.” left out
as §2

[8] = design: method as in earlier work; conditions: house sparrows; cited from earlier work
[9] = design: method as in PMID 17644690; conditions: rock doves; cited from earlier work
[10] = design: method as in PMID 17644690; conditions: laboratory rats; cited from earlier work
[11] = design: method as in PMID 2167807; conditions: humans, corrected for incomplete urine recovery; cited from earlier work
[12] = Recovery of injected probes in urine of common spiny mice; assay type: in vivo; conditions: Acomys cahirinus (common spiny mouse), ip; A. cahirinus, intraperitoneal injection, cumulative urine recovery, mean ± SEM; read-out: Recovery of injected probe in urine
Protocol: (§5) As a measure of passive, paracellular absorption, we used standard methods from pharmacokinetics to measure the whole-organism fractional absorption of water-soluble compounds. As described in more detail, below, metabolically inert probe molecules were injected and also administered orally with a gavage needle to intact animals in separate experiments, and blood and/or urine samples were serially collected and analyzed for the probe molecules by liquid scintillation. Fractional absorption (f) was calculated as [post oral administration AUC]/[ post injection AUC] where AUC = dose-corrected area under the curve of plasma or urine probe amount vs. time. […] In mammals, the probes can be recovered in urine, and estimates of oral absorption take account of possible differential recovery by incorporating data on probes when injected. […]
as §2

[13] = Recovery of injected probes in urine of golden spiny mice; assay type: in vivo; conditions: Acomys russatus (golden spiny mouse), ip; A. russatus, intraperitoneal injection, cumulative urine recovery, mean ± SEM; read-out: Recovery of injected probe in urine
Protocol: as §5, §2

[14] = in vivo; cited from earlier work
[15] = design: method as in PMID 18025481; conditions: rats, cited from earlier work
[16] = test system: whole-animal glucose absorption; design: method as in PMID 20145981; conditions: laboratory rats, cited from earlier work
[17] = test system: whole-animal glucose absorption; design: method as in PMID 20145981; conditions: American robins; cited from earlier work
[18] = rock doves, nicotine in cationic water-soluble form, predicted from MW size-dependence of paracellular absorption
Description: These factors of molecule size, charge, and associated nutrients help define the conditions under which water-soluble SMs may be best absorbed.

[19] = rock doves, area under the curve calculations; ref F. D. Cid, E. Caviedes-Vidal and W.H. Karasov, unpubl. observations; cited from earlier work

## OC1OC[C@H](O)[C@H](O)[C@H]1O (mixture of isomers) [L-arabinose]
[1]
  dose excreted: 81 to 93%
[2]
  Fractional absorption (f): 0.37
[2]; listed as arabinose
  Fractional absorption (f): 0.37±0.06
[3]
  Tmax: ≤ 10 min
  Fractional absorption (f): 0.98±0.07
[4]
  Tmax: ≤ 10 min
  Fractional absorption (f): 1.10±0.15
[5]
  Fractional absorption (f): 1.03±0.17 and 1.03±0.07
[6]
  A, mono-exponential fit Ct = A e^−αt: 25.1±3.1 mg^−1 plasma
[7]
  A, mono-exponential fit Ct = A e^−αt: 73.1±4.2 mg^−1 plasma
[8]
  Fractional absorption (f): 0.61
[9]
  Fractional absorption (f): 0.61
[10]
  Fractional absorption (f): 0.34
[11]
  Fractional absorption (f): 0.26

## OC[C@H]1O[C@@H](O[C@@H]2[C@@H](CO)OC(O)(CO)[C@H]2O)[C@H](O)[C@@H](O)[C@H]1O (mixture of isomers) [lactulose]
[1]
  dose excreted: 90 to 97%
[2]
  Fractional absorption (f): 0.085±0.021
[3]
  Fractional absorption (f): 0.069±0.011
[4]
  Fractional absorption (f): 0.30±0.10
[5]
  Fractional absorption (f): 0.17±0.06

## CO[C@@H]([C@H](O)[C@H](O)CO)[C@@H](O)C=O [3-O-methyl-D-glucose]
[12]
  dose excreted: 100 ± 1%
[13]
  dose excreted: 93 ± 3%
[1]
  dose excreted: 96 to 101%
[2]
  Fractional absorption (f): 0.95±0.01
[2]; rodents, corrected for difference in MW
  Ratio f L-arabinose/f 3OMD-glucose (proportion of 3OMD-glucose absorption that is passive): 0.34
[3]
  Tmax: 40 to 50 min
  Fractional absorption (f): 0.95±0.08
[4]
  Tmax: 30 min
  Fractional absorption (f): 0.80±0.19
[5]; birds, corrected for difference in MW
  Ratio f L-arabinose/f 3OMD-glucose (proportion of 3OMD-glucose absorption that is passive): 1
[5]
  Fractional absorption (f): 0.88±0.08
[6]
  A, mono-exponential fit Ct = A e^−αt: 22.6±3.0 mg^−1 plasma
[7]
  A, mono-exponential fit Ct = A e^−αt: 81.1±10.4 mg^−1 plasma

## O=C[C@@H](O)[C@H](O)[C@@H](O)[C@@H](O)CO [L-glucose]
[14]
  Share of glucose absorption accounted for by L-glucose (passive): 50 to >90

## C[C@H](O)[C@H](O)[C@@H](O)[C@@H](O)C=O [L-rhamnose]
[15]; estimate from serially sampling blood
  Fractional absorption: 0.24±0.03
[15]; measured by urine recovery
  Fractional absorption: 0.22±0.03

## O=c1c(OC2OC(CO)C(O)C(O)C2O)c(-c2ccc(O)c(O)c2)oc2cc(O)cc(O)c12 (centres unmarked) [isoquercetrin]
[16]
  Effect on glucose absorption: significantly decreased glucose absorption
[17]
  Effect on glucose absorption: not in robins

## CN1CCC[C@H]1c1cccnc1 [nicotine]
[18]
  Predicted absorption of a dose: around 40%
[19]
  Absorption of a dose: 44±3%

## O=C(CCc1ccc(O)cc1)c1c(O)cc(O)cc1O[C@@H]1O[C@H](CO)[C@@H](O)[C@H](O)[C@H]1O [phloridzin]
[16]; 10 mM
  Inhibition of whole-animal glucose absorption efficiency: > 36%
[17]
  Effect on glucose absorption: did not significantly decrease glucose absorption
